According to patent US10981911B2, “Imidazopyrrolopyridine as inhibitors of the JAK family of kinases” (Janssen Pharmaceutica NV, priority 2016, dated 2021):

Key:
Format in all cases: biochemical
[1] = biological target: Tyk2-JH1JH2 (Homo sapiens (Human), UniProt P29597, C1142A/C936A); assay: Enzymatic inhibition assay (RapidFire HTMS), Tyk2; settings: 50 μM ATP, 200 μM substrate
Description: (§1) LC/MS grade Water and Acetonitrile (ACN), were purchased from HoneyWell, Burdick & Jackson (Muskegon, Mich., USA). Dimethylsulfoxide 99.8% (DMSO) and Trifluoroacetic Acid 99.5% (TFA) were purchased from EMD Chemical (Gibbstown, N.J., USA). Adenosine triphosphate (ATP), 4-Morpholinepropanesulfonic acid (MOPS), Magnesium chloride (MgCl2), ethylenediaminetetraacetic acid (EDTA), dithiothreitol (DTT), formic acid >95% (FA) and Tween-20 were purchased from Sigma (St Louis, Mo., USA). 384-well polypropylene plates, Cat #781280 were purchased from Greiner (Monroe, N.C.), RapidFire™ cartridge A C4 Column (Agilent Technologies, Santa Clara, Calif.).
(§2) The HTMS experiments were performed in positive ionization mode on a RapidFire 300 instrument (Agilent Technologies, Santa Clara, Calif.), coupled with an ABSiex QTrap 4000 system with an Electrospray Ionization source (RF-MS) (Concord, ON, Canada). […] The entire system was operated using the RapidFire software interfaced with Analyst software for the mass spectrometer.
(§3) 11-point dosing series were made for each compound by serially diluting 1:3 or 1:4 in DMSO, with point 12 being a DMSO control. From the serial dilution plates, sample was transferred to a 384 wells assay plate (#781280, Greiner, Monroe, N.C.) using Labcyte Echo (Sunnyvale, Calif.), or Biosero ATS (San Diego, Calif.). The compounds were tested in duplicate. Column 12 was used for positive controls, and column 24 contained negative controls with no enzyme added. A compound from our internal collection, with inhibitory activity for JAK isoforms, was used as a reference compound. The final concentration of DMSO was ≤0.25% in a 20 μL reaction. […] The Tyk2 enzyme was pre-incubated with 2 mM ATP for 30 min prior to the reaction initiation. Immediately after the addition of the enzyme to the reaction mixture, the plate was centrifuged at 1000 rpm for 1 minute and incubated at 25° C. for 45 minutes for JAK 3 and 90 minutes for JAK1, JAK2 and Tyk2. The reaction was quenched by the addition of 20 μL of 0.5% TFA containing 0.15 μM of internal standard peptide using Multidrop Combi reagent dispenser (Thermo Scientific, Waltham, Mass.). […] After the quench, the assay plate was centrifuged at 3000 rpm for 3 minutes and sealed with pierceable aluminum foil (Cat #06644-001, Agilent) using a PlateLoc (Agilent Technologies, Santa Clara, Calif.). The plates then were transferred on to the RapidFire for the MS analysis. Compound inhibition was assessed by a decrease of the phosphorylated product levels in sample wells compared to the non-inhibited enzyme reaction.
(§4) The sample analysis on the RapidFire was performed using a mobile phase A consisting of Water/TFA/FA (100:0.01:0.1, v/v/v), a mobile phase B consisting of ACN/Water/TFA/FA (80:20:0.01:0.1, v/v/v). […] The samples were aspirated directly from the 384 assay plate and delivered onto RF-MS microscale solid-phase C4 extraction cartridge (Type A). The undesired component such as salt, cofactor, detergent and large protein were washed out and the retained analytes (substrate, product and IS) were coeluted directly onto the ABSiex Qtrap 4000 system.

[2] = biological target: JAK1-JH1JH2 (Homo sapiens (Human), UniProt P23458); assay: Enzymatic inhibition assay (RapidFire HTMS), JAK1; settings: 12.5 μM ATP, 200 μM substrate; read-out: JAK1-JH2JH1 IC50
JAK1-JH1JH2, sequence (P23458 574-1154): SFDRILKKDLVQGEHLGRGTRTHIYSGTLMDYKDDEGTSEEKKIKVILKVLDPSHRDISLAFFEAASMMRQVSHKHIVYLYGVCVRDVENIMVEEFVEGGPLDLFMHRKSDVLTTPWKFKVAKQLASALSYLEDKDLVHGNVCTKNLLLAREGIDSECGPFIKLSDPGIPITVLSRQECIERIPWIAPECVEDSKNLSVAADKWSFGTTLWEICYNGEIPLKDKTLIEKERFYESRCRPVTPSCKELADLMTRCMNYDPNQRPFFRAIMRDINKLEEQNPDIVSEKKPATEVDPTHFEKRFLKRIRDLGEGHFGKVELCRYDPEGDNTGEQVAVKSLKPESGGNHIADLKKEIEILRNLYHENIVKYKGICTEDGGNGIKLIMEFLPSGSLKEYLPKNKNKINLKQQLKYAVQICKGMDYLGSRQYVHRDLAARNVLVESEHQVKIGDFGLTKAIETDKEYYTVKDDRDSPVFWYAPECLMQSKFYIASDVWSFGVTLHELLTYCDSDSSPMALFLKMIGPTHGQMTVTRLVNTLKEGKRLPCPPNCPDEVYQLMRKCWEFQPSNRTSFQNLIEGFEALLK
Description: as §1, §2, §3, §4

[3] = biological target: JAK2-JH1JH2 (Homo sapiens (Human), UniProt O60674); assay: Enzymatic inhibition assay (RapidFire HTMS), JAK2; settings: 30 μM ATP, 40 μM substrate
JAK2-JH1JH2, sequence (O60674 532-1132): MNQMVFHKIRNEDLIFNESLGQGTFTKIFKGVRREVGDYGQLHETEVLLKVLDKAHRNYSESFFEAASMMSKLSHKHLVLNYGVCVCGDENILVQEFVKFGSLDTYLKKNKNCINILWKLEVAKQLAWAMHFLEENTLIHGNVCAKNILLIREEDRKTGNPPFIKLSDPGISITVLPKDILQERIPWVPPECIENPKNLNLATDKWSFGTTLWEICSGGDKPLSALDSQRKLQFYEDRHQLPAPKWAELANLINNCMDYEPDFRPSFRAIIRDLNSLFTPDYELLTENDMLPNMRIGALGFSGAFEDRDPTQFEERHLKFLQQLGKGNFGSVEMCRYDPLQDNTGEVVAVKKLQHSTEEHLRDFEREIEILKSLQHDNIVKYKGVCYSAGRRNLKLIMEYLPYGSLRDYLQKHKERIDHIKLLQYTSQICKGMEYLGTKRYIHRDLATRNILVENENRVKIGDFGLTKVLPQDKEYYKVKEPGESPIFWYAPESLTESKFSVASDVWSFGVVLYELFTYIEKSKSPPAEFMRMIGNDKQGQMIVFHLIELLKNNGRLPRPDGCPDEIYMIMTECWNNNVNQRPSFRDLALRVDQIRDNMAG
Description: as §1, §2, §3, §4

[4] = biological target: JAK3-JH1JH2 (Homo sapiens (Human), UniProt P52333); assay: Enzymatic inhibition assay (RapidFire HTMS), JAK3; settings: 150 μM ATP, 40 μM substrate
JAK3-JH1JH2, sequence (P52333 512-1124): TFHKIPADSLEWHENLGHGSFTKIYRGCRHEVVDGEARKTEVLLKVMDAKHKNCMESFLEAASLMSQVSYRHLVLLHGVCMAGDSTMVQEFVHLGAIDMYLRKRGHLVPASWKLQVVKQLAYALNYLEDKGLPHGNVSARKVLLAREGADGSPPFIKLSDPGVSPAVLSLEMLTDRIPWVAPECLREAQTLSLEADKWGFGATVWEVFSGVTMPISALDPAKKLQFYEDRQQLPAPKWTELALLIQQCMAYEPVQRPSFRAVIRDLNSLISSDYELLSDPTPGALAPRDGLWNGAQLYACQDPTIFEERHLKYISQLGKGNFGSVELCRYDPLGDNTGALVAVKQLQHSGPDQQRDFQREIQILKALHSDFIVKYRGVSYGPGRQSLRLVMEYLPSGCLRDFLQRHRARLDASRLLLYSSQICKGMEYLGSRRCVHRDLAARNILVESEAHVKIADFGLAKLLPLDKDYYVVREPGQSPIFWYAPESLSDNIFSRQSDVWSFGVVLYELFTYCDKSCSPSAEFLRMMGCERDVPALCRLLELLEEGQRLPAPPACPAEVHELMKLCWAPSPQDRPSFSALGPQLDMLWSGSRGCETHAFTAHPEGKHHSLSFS
Description: as §1, §2
as §3, with “compound.” for “compound. The final concentration of DMSO was ≤0.25% in a 20 μL reaction.”
as §4

Tyk2-JH1JH2, sequence (P29597 580-1182 C936A/C1142A): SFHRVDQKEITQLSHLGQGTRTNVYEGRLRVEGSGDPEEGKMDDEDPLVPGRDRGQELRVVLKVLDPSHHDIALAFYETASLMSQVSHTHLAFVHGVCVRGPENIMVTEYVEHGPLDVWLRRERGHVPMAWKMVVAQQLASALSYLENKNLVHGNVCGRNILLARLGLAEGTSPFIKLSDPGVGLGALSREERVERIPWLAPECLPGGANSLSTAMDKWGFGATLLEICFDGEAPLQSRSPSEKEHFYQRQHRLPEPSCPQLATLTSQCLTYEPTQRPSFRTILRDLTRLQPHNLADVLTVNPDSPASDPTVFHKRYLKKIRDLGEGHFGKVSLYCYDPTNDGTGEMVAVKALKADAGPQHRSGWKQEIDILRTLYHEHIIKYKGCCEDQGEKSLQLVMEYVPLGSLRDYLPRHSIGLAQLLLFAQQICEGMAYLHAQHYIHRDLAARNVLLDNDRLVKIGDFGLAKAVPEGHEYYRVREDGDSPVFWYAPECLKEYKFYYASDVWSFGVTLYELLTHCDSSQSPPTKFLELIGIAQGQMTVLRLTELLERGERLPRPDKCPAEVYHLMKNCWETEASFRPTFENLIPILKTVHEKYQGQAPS

Row | Structure (SMILES) | IC50 [1] [nM] | IC50 [2] [nM] | IC50 [3] [nM] | IC50 [4] [nM]
1 | N#CC[C@H]1CC[C@H](n2c(CC(=O)Nc3ccc(CO)cc3)nc3cnc4[nH]ccc4c32)CC1 [Ex. 7, 2-(1-((1r,4r)-4-(Cyanomethyl)cyclohexyl)-1,6-dihydroimidazo[4,5-d]pyrrolo[2,3-b]pyridin-2-yl)-N-(4-(hydroxymethyl)phenyl)acetamide] | 0.9 | 0.1 | 0.6 | 13.3
2 | N#CCc1ccc(NC(=O)Cc2nc3cnc4[nH]ccc4c3n2[C@H]2CC[C@H](CC#N)CC2)cc1 [Ex. 8, 2-(1-((1r,4r)-4-(Cyanomethyl)cyclohexyl)-1,6-dihydroimidazo[4,5-d]pyrrolo[2,3-b]pyridin-2-yl)-N-(4-(cyanomethyl)phenyl)acetamide] | 0.7 | 0.1 | 0.5 | 12.9
3 | N#CC[C@H]1CC[C@H](n2c(-c3nc[nH]n3)nc3cnc4[nH]ccc4c32)CC1 [Ex. 9, 2-((1r,4r)-4-(2-(1H-1,2,4-Triazol-3-yl)imidazo[4,5-d]pyrrolo[2,3-b]pyridin-1(6H)-yl)cyclohexyl)acetonitrile] | 1.6 | 0.1 | 0.3 | 48.9
4 | N#CC[C@H]1CC[C@H](n2c(CC(=O)N3CCC(O)CC3)nc3cnc4[nH]ccc4c32)CC1 [Ex. 12, 2-((1r,4r)-4-(2-(2-(4-Hydroxypiperidin-1-yl)-2-oxoethyl)imidazo[4,5-d]pyrrolo[2,3-b]pyridin-1(6H)-yl)cyclohexyl)acetonitrile] | 1.4 | 0.1 | 9.2 | 99.4
5 | N#CCCS(=O)(=O)NCc1nc2cnc3[nH]ccc3c2n1[C@H]1CC[C@H](CC#N)CC1 [Ex. 13, 2-Cyano-N-((1-((1r,4r)-4-(cyanomethyl)cyclohexyl)-1,6-dihydroimidazo[4,5-d]pyrrolo[2,3-b]pyridin-2-yl)methyl)ethanesulfonamide] | 3.3 | 0.1 | 7.1 | 651
6 | N#CC[C@H]1CC[C@H](n2c(CC(=O)NCc3ccncn3)nc3cnc4[nH]ccc4c32)CC1 [Ex. 14, 2-(1-((1r,4r)-4-(Cyanomethyl)cyclohexyl)-1,6-dihydroimidazo[4,5-d]pyrrolo[2,3-b]pyridin-2-yl)-N-(pyrimidin-4-ylmethyl)acetamide] | 2.8 | 0.1 | 1.8 | 43.7
7 | [H]/N=C(\c1ccccc1)N(O)Cc1nc2cnc3[nH]ccc3c2n1[C@H]1CC[C@H](CC#N)CC1 [Ex. 17A, (E)-N-((1-((1r,4r)-4-(Cyanomethyl)cyclohexyl)-1,6-dihydroimidazo[4,5-d]pyrrolo[2,3-b]pyridin-2-yl)methyl)-N-hydroxybenzimidamide] | 1.4 | 0.1 | 1.2 | 65.8
8 | [H]/N=C(/c1ccccc1)N(O)Cc1nc2cnc3[nH]ccc3c2n1[C@H]1CC[C@H](CC#N)CC1 [Ex. 17B, (Z)—N-((1-((1r,4r)-4-(Cyanomethyl)cyclohexyl)-1,6-dihydroimidazo[4,5-d]pyrrolo[23-b]pyridin-2-yl)methyl)-N-hydroxybenzimidamide] | 2.9 | 0.5 | 4.5 | 102
9 | N#CC[C@H]1CC[C@H](n2c(CC(=O)N3CC(O)C3)nc3cnc4[nH]ccc4c32)CC1 [Ex. 18, 2-((1r,4r)-4-(2-(2-(3-Hydroxyazetidin-1-yl)-2-oxoethyl)imidazo[4,5-d]pyrrolo[2,3-b]pyridin-1(6H)-yl)cyclohexyl)acetonitrile] | 6.4 | 0.1 | 35.3 | 540
10 | N#CC[C@H]1CC[C@H](NC(=O)Cc2nc3cnc4[nH]ccc4c3n2[C@H]2CC[C@H](CC#N)CC2)CC1 [Ex. 19, N-((1r,4r)-4-(Cyanomethyl)cyclohexyl)-2-(1-((1r,4r)-4-(cyanomethyl)cyclohexyl)-1,6-dihydroimidazo[4,5-d]pyrrolo[2,3-b]pyridin-2-yl)acetamide] | 4.4 | 0.1 | 2.4 | 31.8
11 | N#CC[C@H]1CC[C@H](n2c(CC(=O)Nc3ccccc3)nc3cnc4[nH]ccc4c32)CC1 [Ex. 20, 2-(1-((1r,4r)-4-(Cyanomethyl)cyclohexyl)-1,6-dihydroimidazo[4,5-d]pyrrolo[2,3-b]pyridin-2-yl)-N-phenylacetamide] | 1.9 | 0.1 | 1.2 | 20.5
12 | N#CC[C@H]1CC[C@H](n2c(C(=O)N3CCC(O)(c4ccccn4)CC3)nc3cnc4[nH]ccc4c32)CC1 [Ex. 88, 2-((1r,4r)-4-(2-(4-Hydroxy-4-(pyridin-2-yl)piperidine-1-carbonyl)imidazo[4,5-d]pyrrolo[2,3-b]pyridin-1(6H)-yl)cyclohexyl)acetonitrile] | 49.5 | 0.4 | 43.4 | 
13 | CCOP(=O)(Cc1ccc(NC(=O)Cc2nc3cnc4[nH]ccc4c3n2[C@H]2CC[C@H](CC#N)CC2)cc1)OCC [Ex. 108, Diethyl 4-(2-(1-((1r,4r)-4-(cyanomethyl)cyclohexyl)-1,6-dihydroimidazo[4,5-d]pyrrolo[2,3-b]pyridin-2-yl)acetamido)benzylphosphonate] | 7.1 | 0.6 | 3.8 | 
14 | C[Si](C)(C)[C@H]1CC[C@@H](NC(=O)Cc2nc3cnc4[nH]ccc4c3n2[C@H]2CC[C@H](CC#N)CC2)CC1 [Ex. 135, 2-(1-((1r,4r)-4-(Cyanomethyl)cyclohexyl)-1,6-dihydroimidazo[4,5-d]pyrrolo[2,3-b]pyridin-2-yl)-N-((1S,4S)-4-(trimethylsilyl)cyclohexyl)acetamide] | 8.7 | 0.8 | 4 | 
15 | CC(C)(C)COC(=O)NCc1nc2cnc3[nH]ccc3c2n1[C@H]1CC[C@H](CC#N)CC1 [Ex. 154, Neopentyl ((1-((1r,4r)-4-(Cyanomethyl)cyclohexyl)-1,6-dihydroimidazo[4,5-d]pyrrolo[2,3-b]pyridin-2-yl)methyl)carbamate] | 16.1 | 1.2 |  | 408
16 | C[Si](C)(C)[C@H]1CC[C@H](NC(=O)Cc2nc3cnc4[nH]ccc4c3n2[C@H]2CC[C@H](CC#N)CC2)CC1 [Ex. 167, 2-(1-((1r,4r)-4-(Cyanomethyl)cyclohexyl)-1,6-dihydroimidazo[4,5-d]pyrrolo[2,3-b]pyridin-2-yl)-N-((1r,4r)-4-(trimethylsilyl)cyclohexyl)acetamide] | 25.5 | 1.9 | 20.8 | 
